Test results published in EP0745595A1, “3-(3-Aryloxyphenyl)-1-(substituted methyl)-s-triazine-2,4,6-oxo or thiotrione herbicidal agents” (American Cyanamid Company, priority 1995, dated 1996).

Key:
Type in all cases: in vivo
CYPERUS IRIA = test: Preemergence weed control under flooded paddy conditions, CYPIR (Rice Flatsedge); conditions: 0.500 kg/ha, preemergence, 3-4 weeks after treatment
Outline: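 This preemergence test mimicked flooded paddy conditions: rice flatsedge propagules were sown in the upper 0.5 cm of silt loam in undrained 32 oz. containers (10.5 cm diameter), with water held 1.5 to 3 cm over the soil. After normal greenhouse care, plants were scored 0-9 for stand, vigor, malformation, size, chlorosis and appearance relative to controls.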

GALIUM APARINE [1] = test: Postemergence herbicidal evaluation, GALAP (Galium); parameters: key to GALAP rating / Herbicidal effect rating, GALAP / GALAP: 0-9 visual rating scale vs untreated control
Outline: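 In this postemergence greenhouse test, two-week-old Galium aparine seedlings grown in jiffy flats received a 40 psi spray of compound in acetone/water (50/50) with 0.5% TWEEN®20 surfactant. After four to five weeks, stand, vigor, malformation, size, chlorosis and overall appearance were compared with untreated controls on a 0-9 scale, averaging multiple tests.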

[2] = test system: GLYCINE MAX(L) MERR. CV. WILLIAMS; test: Preemergence herbicidal evaluation, GLXMAW (Soybean, Williams); conditions: Rate 0.500 kg/ha, rated four to five weeks after treatment
Outline: (§1)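 Preemergence, greenhouse: seed + potting soil sown on ~1 inch soil in cups; aqueous acetone spray, ~0.125–0.50 kg/ha equivalent; rated 0-9 vs control at 4–5 wk.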

[…], PRESL. = Preemergence weed control under flooded paddy conditions, MOOVA (Monochoria); conditions: 0.500 kg/ha, preemergence, 3-4 weeks after treatment
Outline: (§2)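 Visual 0-9 rating against untreated control, covering stand, vigor, malformation, size and chlorosis, scored three to four weeks post-treatment in a greenhouse. Application was into 1.5-3 cm flood water over silt loam sown at 0.5 cm. The 50/50 v/v aqueous/acetone doses were about 0.5, 0.25, 0.125 and 0.063 kg/ha.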

ZEA MAYS L. = test: Preemergence herbicidal evaluation, ZEAMX (Corn, Field); conditions: Rate 0.500 kg/ha, rated four to five weeks after treatment
Outline: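 Preemergence herbicidal activity on field corn: seeds in potting soil were sown atop roughly one inch of soil in separate pint cups, treated, and grown under standard greenhouse care. Four to five weeks post-treatment, stand, vigor, malformation, size, chlorosis and overall appearance were compared with a control and scored 0-9.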

CASSIA OBTUSIFOLIA, L. = test: Preemergence herbicidal evaluation, CASOB (Sicklepod); conditions: Rate 0.500 kg/ha, rated four to five weeks after treatment
Outline: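 Preemergence herbicidal activity against sicklepod was assessed by planting seed mixed with potting soil atop about one inch of soil in pint cups. After treatment the cups were watered and handled per standard greenhouse practice. Tests ended four to five weeks later, with plant stand, vigor, malformation, size, chlorosis and overall appearance scored 0-9 relative to a control.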

SAGITTARIA PYGMAEA, L. = test: Preemergence weed control under flooded paddy conditions, SAGPY (Arrowhead (Pygmaea)); conditions: 0.500 kg/ha, preemergence, 3-4 weeks after treatment
Outline: as §2

[3] = test system: CYPERUS SEROTINUS, ROTTB.; test: Preemergence weed control under flooded paddy conditions, CYPSE (Flatsedge); conditions: 0.500 kg/ha, preemergence, 3-4 weeks after treatment
Outline: as §2

IPOMOEA SPP. = test: Preemergence herbicidal evaluation, IPOSS (Morningglory spp.); conditions: Rate 0.500 kg/ha, rated four to five weeks after treatment
Outline: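 This preemergence greenhouse test scored herbicidal effect on morningglory planted in pint cups, with seed mixed into potting soil and placed over about one inch of soil. After treatment the cups were watered and kept under conventional care. At four to five weeks, plant stand, vigor, malformation, size, chlorosis and overall appearance were compared with a control and rated 0-9.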

[4] = test system: ORYZA SATIVA, L. TEBONNET; test: Postemergence herbicidal evaluation, ORYSAT (Rice, Tebonnet); parameters: key: 0-9 visual rating scale vs untreated control; conditions: Rate 0.500 kg/ha
Outline: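 This postemergence greenhouse test used Oryza sativa cv. Tebonnet seedlings grown about two weeks in jiffy flats. Test material in 50/50 acetone/water with 0.5% TWEEN®20 surfactant was applied through a spray nozzle at 40 psi. Four to five weeks later, stand, vigor, malformation, size, chlorosis and overall appearance were rated 0-9 relative to a control, and repeat tests were averaged.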

[5] = test system: GLYCINE MAX(L) MERR. CV. WILLIAMS; test: Postemergence herbicidal evaluation, GLXMAW (Soybean, Williams); parameters: key to GLXMAW rating / Herbicidal effect rating, GLXMAW / GLXMAW: 0-9 visual rating scale vs untreated control; conditions: Rate 0.500 kg/ha
Outline: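 Herbicidal injury to Williams soybean was assessed after a postemergence spray of two-week-old seedlings grown in jiffy flats. Compounds were dispersed in an acetone/water (50/50) mixture with 0.5% TWEEN®20 surfactant and applied at 40 psi. After four to five weeks in the greenhouse, stand, vigor, malformation, size and chlorosis were compared against a control on a 0-9 scale, and results from replicate tests were averaged.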

[6] = test system: ECHINOCHLOA ORYZOIDES (ARD.)FRITSCH; test: Preemergence weed control under flooded paddy conditions, ECHORC (Watergrass (Calif.)); conditions: 0.500 kg/ha, preemergence, 3-4 weeks after treatment
Outline: as §2

GALIUM APARINE [7] = test: Preemergence herbicidal evaluation, GALAP (Galium); conditions: Rate 0.500 kg/ha, rated four to five weeks after treatment
Outline: as §1

With COC(=O)Cn1c(=O)n(C)c(=O)n(-c2cc(Oc3ccccn3)ccc2[N+](=O)[O-])c1=O [Compound 38, Methyl tetrahydro-3-methyl-5-[2-nitro-5-(2-pyridyloxy)phenyl]-2,4,6-trioxo-s-triazine-1(2H)-acetate] the “Herbicidal effect rating, CYPIR” value (CYPERUS IRIA) was 0.0, the GALAP rating (GALIUM APARINE [1]; Rate 0.500 kg/ha) was 0.0 and the GLXMAW herbicidal rating [2] was 1.0. For the same compound, the “Herbicidal effect rating, MOOVA” value ([…], PRESL.) was 0.0, the ZEAMX herbicidal rating (ZEA MAYS L.) was 2.0 and the CASOB herbicidal rating (CASSIA OBTUSIFOLIA, L.) was 0.0. The “Herbicidal effect rating, SAGPY” value (SAGITTARIA PYGMAEA, L.) was 0.0, the “Herbicidal effect rating, CYPSE” value [3] was 0.0 and the IPOSS herbicidal rating (IPOMOEA SPP.) was 0.0. For the same compound, the ORYSAT rating [4] was 0.0, the GLXMAW rating [5] was 0.5 and the “Herbicidal effect rating, ECHORC” value [6] was 0.0. It also gave a GALAP herbicidal rating (GALIUM APARINE [7]) of 0.0.

COC(=O)Cn1c(=O)n(C)c(=O)n(-c2cc(Oc3cc(Cl)cc(Cl)c3)ccc2[N+](=O)[O-])c1=O [Compound 35, Methyl 3-[5-(3,5-dichlorophenoxy)-2-nitrophenyl]tetrahydro-5-methyl-2,4,6-trioxo-s-triazine-1(2H)-acetate] was tested, and the “Herbicidal effect rating, CYPIR” value (CYPERUS IRIA) was 0.0, the GALAP rating (GALIUM APARINE [1]; Rate 0.125 kg/ha) was 0.0 and the GALAP rating (GALIUM APARINE [1]; Rate 0.250 kg/ha) was 0.0. For the same compound, the GALAP rating (GALIUM APARINE [1]; Rate 0.500 kg/ha) was 0.0, the GLXMAW herbicidal rating [2] was 1.0 and the “Herbicidal effect rating, MOOVA” value ([…], PRESL.) was 0.0. The ZEAMX herbicidal rating (ZEA MAYS L.) was 0.0, the CASOB herbicidal rating (CASSIA OBTUSIFOLIA, L.) was 0.0 and the “Herbicidal effect rating, SAGPY” value (SAGITTARIA PYGMAEA, L.) was 0.0. For the same compound, the “Herbicidal effect rating, CYPSE” value [3] was 0.0, the IPOSS herbicidal rating (IPOMOEA SPP.) was 0.0 and the “Herbicidal effect rating, ECHORC” value [6] was 0.0. The GALAP herbicidal rating (GALIUM APARINE [7]) was 0.0.
